Data on six compounds can be found in PubChem BioAssay (NCI).

Among the test systems are MDA-MB-231 breast; NCI-H226 lung; UO-31 renal; MALME-3M melanoma; T-47D breast; KM12 colon; OVCAR-3 ovarian; HOP-92 NSCLC; SN12C renal; U251 CNS.
What all share (assay): DTP human tumour cell line panel, 48 h

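96-well plates; 48 h exposure; 5 concentrations. Endpoints by linear interpolation between flanking doses. Not reached: highest tested concentration assigned. The concentration for 50% growth inhibition is given as GI50. The concentration for full growth arrest is given as TGI.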

Take `O=C1C[C@@H]2OCC=C3C[N+]4([O-])CC[C@]56c7ccccc7N1[C@H]5[C@H]2[C@H]3C[C@@H]64` (stereo not given in full): the GI50 in the assay with MDA-MB-231 breast, with NCI-H226 lung, in the assay on UO-31 renal, in the assay on MALME-3M melanoma, with T-47D breast and with KM12 colon was above 100 µM in each case. Further, the GI50 in the assay on OVCAR-3 ovarian, in the assay on HOP-92 NSCLC, in the assay on SN12C renal and with U251 CNS was above 100 µM throughout. In addition, the TGI in the assay on MDA-MB-231 breast, in the assay on NCI-H226 lung, in the assay with UO-31 renal, with MALME-3M melanoma, in the assay on T-47D breast and in the assay on KM12 colon was above 100 µM in each case. Moreover, the total growth inhibition concentration (TGI) in the assay on OVCAR-3 ovarian, in the assay on HOP-92 NSCLC, with SN12C renal and with U251 CNS was above 100 µM throughout.
In the case of `O=C1[C@H](Cc2ccc(O)cc2)N2C(=O)CCN(C(=O)NCc3ccccc3)[C@H]2CN1Cc1cccc2ccccc12`, the GI50 (in general, the concentration that inhibits growth by half) in the assay with MDA-MB-231 breast was 0.605 µM; in the assay with NCI-H226 lung, 1.99 µM; with UO-31 renal it was 11.3 µM; in the assay on MALME-3M melanoma, 1.9 µM; in the assay on T-47D breast, 2.34 µM; in the assay on KM12 colon, 3.1 µM. Also, the GI50 with OVCAR-3 ovarian is 1.71 µM; with HOP-92 NSCLC it was 0.418 µM; with SN12C renal, 4.18 µM; in the assay on U251 CNS it was 0.985 µM. Besides, the TGI (as a rule, the concentration giving total growth inhibition) is 3.6 µM with MDA-MB-231 breast; 21.4 µM in the assay on NCI-H226 lung; 77.9 µM with UO-31 renal; 9.46 µM in the assay on MALME-3M melanoma; 15.4 µM in the assay with T-47D breast; 15.3 µM with KM12 colon. The TGI with OVCAR-3 ovarian was 8.91 µM; in the assay on HOP-92 NSCLC, 2.4 µM; in the assay with SN12C renal it was above 100 µM; in the assay on U251 CNS it was 18.6 µM.
Regarding `CCOC(=O)C#Cc1c(C(=O)OCC)nnn1[C@@H]1O[C@H](COC)[C@@H](OC)[C@H]1OC`, the GI50 was 10.7 µM in the assay with MDA-MB-231 breast; 1.65 µM in the assay with NCI-H226 lung; 1.88 µM in the assay with UO-31 renal; 1.95 µM with MALME-3M melanoma; 2.47 µM with T-47D breast; 16.7 µM in the assay with KM12 colon. Moreover, the GI50 in the assay on OVCAR-3 ovarian was 1.72 µM; with HOP-92 NSCLC it was 2.8 µM; in the assay with SN12C renal, 3.81 µM; in the assay on U251 CNS, 17 µM. The TGI in the assay on MDA-MB-231 breast is 25.1 µM; in the assay with NCI-H226 lung, 3.18 µM; with UO-31 renal it was 4.38 µM; in the assay with MALME-3M melanoma it was 3.9 µM; in the assay with T-47D breast, 7.39 µM; with KM12 colon it was 33.3 µM. Also, the TGI is 3.25 µM in the assay with OVCAR-3 ovarian, 7.61 µM with HOP-92 NSCLC, 14.6 µM in the assay with SN12C renal and 31.3 µM in the assay on U251 CNS.
Consider `O=C1c2ccccc2-c2c1c1c(O)cccc1n2Cc1ccccc1`, for which the GI50 with MDA-MB-231 breast was above 100 µM; with NCI-H226 lung, above 100 µM; in the assay with UO-31 renal it was 21.8 µM; in the assay with MALME-3M melanoma, 2.76 µM; with T-47D breast, 7.8 µM; in the assay with KM12 colon, 15.8 µM. Further, the GI50 in the assay on OVCAR-3 ovarian is 4.17 µM; in the assay on HOP-92 NSCLC, 4.22 µM; with SN12C renal it was 14.1 µM; with U251 CNS, 15.2 µM. Further, the TGI in the assay with MDA-MB-231 breast was above 100 µM; in the assay on NCI-H226 lung it was above 100 µM; in the assay with UO-31 renal it was above 100 µM; with MALME-3M melanoma, 8.65 µM; with T-47D breast, 90.2 µM; in the assay on KM12 colon it was 84.9 µM. For the same compound, the total growth inhibition concentration (TGI) is 17.3 µM with OVCAR-3 ovarian, 19.8 µM in the assay with HOP-92 NSCLC, above 100 µM in the assay with SN12C renal and 67.1 µM with U251 CNS.
On to `O=S(=O)(Nc1ccccc1)c1ccc(C2CC3(Cl)C(Cl)=C(Cl)C2(Cl)C3(Cl)Cl)cc1` (stereo not given), for which the GI50 was 3.44 µM in the assay on MDA-MB-231 breast; 1.87 µM with NCI-H226 lung; 2.09 µM in the assay on UO-31 renal; 2.53 µM in the assay on MALME-3M melanoma; 2.54 µM in the assay with T-47D breast; 2.15 µM in the assay on KM12 colon. Further, the GI50 in the assay on OVCAR-3 ovarian is 2.18 µM; in the assay with HOP-92 NSCLC, 1.84 µM; with SN12C renal it was 1.71 µM; with U251 CNS, 2.25 µM. Moreover, the total growth inhibition concentration (TGI) in the assay with MDA-MB-231 breast was 11.3 µM; in the assay with NCI-H226 lung, 4.47 µM; with UO-31 renal, 6.72 µM; with MALME-3M melanoma it was 7.11 µM; in the assay on T-47D breast, 6.82 µM; with KM12 colon, 4.12 µM. In addition, the TGI with OVCAR-3 ovarian was determined as 4.13 µM; in the assay on HOP-92 NSCLC, 5.08 µM; with SN12C renal, 3.3 µM; with U251 CNS, 5.52 µM.
Turning to `CCCCCCCCCCN=C(N)c1ccc(N2CCN(c3ccc(C(N)=NCCCCCCCCCC)cc3)CC2)cc1`, the GI50 in the assay on MDA-MB-231 breast is 2.95 µM; in the assay with NCI-H226 lung it was 7.72 µM; in the assay with UO-31 renal, 22.6 µM; in the assay with MALME-3M melanoma, 6.25 µM; in the assay on T-47D breast, 5.91 µM; with KM12 colon, 2.9 µM. Besides, the GI50 in the assay with OVCAR-3 ovarian is 2.23 µM; with HOP-92 NSCLC, 5.88 µM; with SN12C renal it was 2.19 µM; in the assay with U251 CNS, 2.44 µM. Also, the TGI with MDA-MB-231 breast was 17.9 µM; with NCI-H226 lung, above 50 µM; with UO-31 renal it was above 50 µM; in the assay on MALME-3M melanoma, 17 µM; in the assay on T-47D breast, 18.8 µM; with KM12 colon it was 17.8 µM. Further, the TGI in the assay on OVCAR-3 ovarian was 8.57 µM; in the assay with HOP-92 NSCLC it was 28.9 µM; in the assay on SN12C renal, 15.2 µM; in the assay on U251 CNS it was above 50 µM.
